# Marks after values point to notes of the source that are not given here. Strand notation (5' to 3'): a small letter for the sugar, then the base; units joined by * are phosphorothioate-linked, units joined directly phosphodiester-linked; [ ] holds rarer units or linkages, { } end groups; capitals alone tell only the bases. k = constrained ethyl (cEt); [5mC] = 5-methylcytosine; d = 2'-deoxy (DNA)
# Tested on: Yap1 mRNA
# Assay: Antisense inhibition of human Yap1 in A-431 cells by cEt gapmers, single dose (Example 3, RTS36584)
# Format: cell-based
# Conditions: Table 8; A-431 cells, 5,000 cells per well, free uptake, 2,000 nM, approximately 48 hours; RTS36584; normalized to RIBOGREEN; Yap1 mRNA relative to untreated control cells
# Summary of the method: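 Human epidermoid A-431 cells take up gapmer (2,000 nM, free uptake, ~48 h); Yap1 transcript is then assayed by qRT-PCR with RiboGreen normalization and reported relative to untreated cells. Gapmers carry cEt-modified wings, phosphorothioate linkages and 5-methylcytosine throughout.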
row,Substance,YAP1 (% UTC)
1,958366 (antisense kT*kG*kT*dA*dG*d[5mC]*dT*dG*d[5mC]*dT*d[5mC]*dA*dT*kG*k[5mC]*kT) [Compound 958366],16* % UTC
2,958361 (antisense kG*k[5mC]*kT*d[5mC]*dG*dA*dA*d[5mC]*dA*dT*dG*d[5mC]*dT*kG*kT*kG) [Compound 958361],8 % UTC
3,958359 (antisense kT*kG*k[5mC]*dA*dT*d[5mC]*dA*dG*dT*dA*d[5mC]*dT*dG*kG*k[5mC]*k[5mC]) [Compound 958359],117 % UTC
4,958400 (antisense kT*kT*kG*dA*d[5mC]*d[5mC]*dA*dA*d[5mC]*dT*dA*d[5mC]*dT*kT*kG*kA) [Compound 958400],26 % UTC
5,958419 (antisense kT*kA*kA*dG*dA*dG*d[5mC]*d[5mC]*dT*dA*d[5mC]*d[5mC]*dT*kG*kA*k[5mC]) [Compound 958419],68 % UTC

# Same assay, conditions: Table 9; A-431 cells, 5,000 cells per well, free uptake, 2,000 nM, approximately 48 hours; RTS36584; normalized to RIBOGREEN; Yap1 mRNA relative to untreated control cells
row,Substance,YAP1 (% UTC)
1,958511 (k[5mC]*kA*k[5mC]*dT*dA*d[5mC]*d[5mC]*dA*d[5mC]*dA*d[5mC]*dT*dA*kT*kT*kA; antisense) [Compound 958511],31
2,958701 (antisense kT*kT*kA*dA*dA*d[5mC]*dT*dA*dG*dG*d[5mC]*dA*d[5mC]*kA*kT*kT) [Compound 958701],98
3,958816 (kG*kT*kG*dA*dT*dA*dA*d[5mC]*dA*dT*dA*dT*d[5mC]*k[5mC]*k[5mC]*kA; antisense) [Compound 958816],71
4,958471 (antisense k[5mC]*kT*kT*dA*dG*dA*dT*d[5mC]*d[5mC]*dT*dT*d[5mC]*dA*k[5mC]*kA*kG) [Compound 958471],14

# Same assay, conditions: Table 10; A-431 cells, 5,000 cells per well, free uptake, 2,000 nM oligonucleotide, approx. 48 hours; primer probe set RTS36584; Yap1 mRNA normalized to RIBOGREEN, percent of untreated control
row,Substance,YAP1 (% UTC)
1,958672 (kG*kA*kA*d[5mC]*dT*dT*dA*dG*dT*dT*d[5mC]*d[5mC]*d[5mC]*kT*kT*k[5mC]; antisense) [Compound 958672],67
2,958647 (kT*kA*kG*dG*dA*dA*dG*dT*dT*dG*dT*dT*dG*kA*k[5mC]*k[5mC]; antisense) [Compound 958647],11
3,958767 (antisense kA*k[5mC]*kG*dA*dA*dT*dA*dA*dG*dG*d[5mC]*dA*dT*kT*kA*kG) [Compound 958767],6
4,958792 (antisense kG*k[5mC]*k[5mC]*dA*dA*dT*dG*dG*dA*dG*dT*d[5mC]*dA*k[5mC]*k[5mC]*kA) [Compound 958792],46
5,958812 (kT*kA*k[5mC]*dT*dA*dT*dA*dA*dG*dA*d[5mC]*dA*d[5mC]*k[5mC]*kA*kA; antisense) [Compound 958812],31
6,958522 (kA*kA*kT*dT*dA*dG*dT*d[5mC]*d[5mC]*dA*dA*dG*dG*kG*kA*kG; antisense) [Compound 958522],32
7,958462 (antisense kA*k[5mC]*kT*dG*dG*d[5mC]*dT*dA*d[5mC]*dG*d[5mC]*dA*dG*kG*kG*k[5mC]) [Compound 958462],46

# Same assay, conditions: Table 12; A-431 cells, 5,000 cells per well, free uptake, 2,000 nM modified oligonucleotide, approx. 48 hours; RTS36584; normalized to RIBOGREEN; Yap1 mRNA relative to untreated control cells
row,Substance,YAP1 (% UTC)
1,958449 (antisense k[5mC]*k[5mC]*kG*dG*dA*d[5mC]*dG*dG*d[5mC]*dG*dG*dG*d[5mC]*k[5mC]*k[5mC]*kT) [Compound 958449],84
2,958524 (kG*k[5mC]*kA*d[5mC]*dA*dT*dT*dA*dT*dG*dA*dA*d[5mC]*k[5mC]*kT*kA; antisense) [Compound 958524],13
3,958724 (antisense kT*k[5mC]*kA*dG*dT*dT*dA*dT*d[5mC]*d[5mC]*dT*dA*dT*k[5mC]*k[5mC]*k[5mC]) [Compound 958724],2

# Same assay, conditions: Table 13; A-431 cells, 5,000 cells per well, free uptake, 2,000 nM modified oligonucleotide, approx. 48 hours; RTS36584; normalized to RIBOGREEN; Yap1 mRNA relative to untreated control cells
row,Substance,YAP1 (% UTC)
1,958715 (antisense kG*kT*kA*dA*dT*dA*dG*dG*dA*dG*dG*dT*dA*kA*kG*kA) [Compound 958715],48
2,958655 (kG*k[5mC]*kA*dA*dT*d[5mC]*dT*dG*dT*dG*dA*dT*d[5mC]*k[5mC]*k[5mC]*kA; antisense) [Compound 958655],12
3,958750 (antisense kT*kG*kT*dA*dA*dG*dA*dG*dG*dA*dG*dA*d[5mC]*k[5mC]*kA*k[5mC]) [Compound 958750],28
4,958485 (kA*kG*kA*dG*dG*dT*d[5mC]*dA*dG*d[5mC]*dA*dA*dT*kA*k[5mC]*kA; antisense) [Compound 958485],3

# Same assay, conditions: Table 26; Yap1 mRNA by 3-10-3 cEt gapmers targeting SEQ ID NO.: 1, and 2; percent of untreated control
row,Substance,YAP1 (% UTC)
1,1076332 (antisense kT*kA*kT*dA*dA*dG*dG*dA*dA*dT*dG*dG*d[5mC]*kA*kA*k[5mC]) [compound 1076332],107
2,1075532 (kA*k[5mC]*kT*dT*dA*dA*dT*dA*dG*dT*dT*dT*dA*kA*k[5mC]*k[5mC]; antisense) [compound 1075532],121
3,1076140 (kA*k[5mC]*kG*dA*dA*dA*dA*dA*dA*dG*d[5mC]*d[5mC]*dA*kA*k[5mC]*kA; antisense) [compound 1076140],28
4,1075724 (k[5mC]*kT*kA*dT*d[5mC]*dT*dG*dT*d[5mC]*dA*dG*dT*dT*kA*kT*k[5mC]; antisense) [compound 1075724],44

# Same assay, conditions: Table 27; Yap1 mRNA by 3-10-3 cEt gapmers targeting SEQ ID NO.: 1, and 2; percent of untreated control
row,Substance,YAP1 (% UTC)
1,1074285 (antisense kG*k[5mC]*kA*dA*dA*dA*d[5mC]*dG*dA*dG*dG*dG*dT*k[5mC]*kA*kA) [compound 1074285],17
2,1076269 (kG*kA*k[5mC]*dG*dA*dA*dA*dA*dA*dT*dA*dT*dT*k[5mC]*kT*kT; antisense) [compound 1076269],28
3,1074829 (kG*kG*kA*dT*dA*dA*dA*dA*dT*d[5mC]*d[5mC]*dA*d[5mC]*k[5mC]*kT*kG; antisense) [compound 1074829],92

# Same assay, conditions: Table 28; Yap1 mRNA as percent of untreated control; 3-10-3 cEt gapmers targeting SEQ ID NO.: 1, and 2
row,Substance,YAP1 (% UTC)
1,1075182 (kG*kA*kT*dA*dT*dT*dA*dT*dA*dT*dT*dA*d[5mC]*kT*kA*k[5mC]; antisense) [compound 1075182],61
2,1074862 (kT*kA*kT*dG*dA*dG*d[5mC]*dA*dT*dG*d[5mC]*dT*d[5mC]*kT*kT*kA; antisense) [compound 1074862],56
3,1076270 (kT*kA*kA*d[5mC]*dA*dA*dT*dA*dG*dT*dA*dG*dA*k[5mC]*kG*kA; antisense) [compound 1076270],28

# Same assay, conditions: Table 29; Yap1 mRNA as percent of untreated control; 3-10-3 cEt gapmers targeting SEQ ID NO.: 1, and 2
row,Substance,YAP1 (% UTC)
1,1074319 (antisense kG*k[5mC]*kT*dA*dA*d[5mC]*dT*d[5mC]*d[5mC]*dT*dG*dA*d[5mC]*kA*kT*kT) [compound 1074319],47
2,1076111 (kA*kA*kT*dT*dA*dG*dT*dT*dA*dG*dG*dA*dT*kA*kT*k[5mC]; antisense) [compound 1076111],67
3,1076175 (k[5mC]*kA*kA*dT*dA*dG*dG*dT*dA*dA*d[5mC]*dA*dG*kG*kT*kA; antisense) [compound 1076175],15
4,1076239 (kG*kT*kT*dT*dA*dA*dA*dA*dA*dA*dA*dA*d[5mC]*kG*kG*kG; antisense) [compound 1076239],75
5,1075887 (antisense kT*kA*kT*dT*dA*d[5mC]*dT*dT*dG*dA*dT*dT*dG*kA*k[5mC]*kA) [compound 1075887],10
6,1075279 (antisense k[5mC]*kT*kA*dT*dA*d[5mC]*dT*dA*dA*d[5mC]*dA*dT*dT*k[5mC]*kA*k[5mC]) [compound 1075279],52
7,1075567 (kG*kA*kT*dA*dT*dA*dT*dA*dA*d[5mC]*dA*dG*dG*k[5mC]*k[5mC]*kA; antisense) [compound 1075567],65

# Same assay, conditions: Table 34; Yap1 mRNA as percent of untreated control; 3-10-3 cEt gapmers targeting SEQ ID NO: 1 and 2; single dose
row,Substance,YAP1 (% UTC)
1,1076148 (kT*kA*kT*dT*dA*dA*d[5mC]*dT*d[5mC]*dA*d[5mC]*dG*dA*kA*kG*kA; antisense) [compound 1076148],52
2,1074964 (antisense kT*kT*kA*dG*dG*d[5mC]*dA*dA*dG*d[5mC]*dA*dG*d[5mC]*kT*kA*kA) [compound 1074964],112
3,1076372 (antisense k[5mC]*kA*kA*dT*dA*dA*dG*dA*dA*d[5mC]*dG*dA*dA*k[5mC]*k[5mC]*kT) [compound 1076372],76
4,1075764 (k[5mC]*kT*kT*d[5mC]*dA*dA*dG*dG*dA*dA*dG*dG*dT*kG*k[5mC]*kT; antisense) [compound 1075764],103
5,1075444 (antisense kA*kT*kA*dA*dA*dT*d[5mC]*d[5mC]*dT*d[5mC]*dA*dT*dG*kT*kG*kG) [compound 1075444],112
6,1075412 (antisense kT*k[5mC]*k[5mC]*dA*dA*dA*dA*dA*dG*dG*dG*dT*dA*kA*kG*kG) [compound 1075412],48

# Same assay, conditions: Table 35; Yap1 mRNA as percent of untreated control; 3-10-3 cEt gapmers targeting SEQ ID NO: 1 and 2; single dose
row,Substance,YAP1 (% UTC)
1,1074741 (kA*kA*kG*dG*dA*d[5mC]*dT*d[5mC]*dT*dT*dA*dG*dG*kT*k[5mC]*kT; antisense) [compound 1074741],78
